Counter-ions that a name gives are not always drawn.
Experiments:
[1] = tested on: NIH/3T3 cells transfected with control vector; experiment: NIH/3T3 mock cell proliferation assay (counter assay, CellTiter Glo); assay type: cell-based; conditions: Mus musculus, NIH3T3, 72 h, 72-hr incubation, top concentration 30 μM, counter assay for general toxicity, read-out: NIH/3T3 MOCK CTG (IC50)
Procedure: NIH/3T3 Mock Cell Proliferation Assay
In day 1, 90 μL of cell suspension (NIH/3T3 cells transfected with the same control vector as in the above two proliferation assays) (total 30,000 cells per well in growth medium (DMEM containing 1% Glutamax, 10% FBS and 1% Pen/Strep)) was seeded in a 96-well plate and then incubated overnight at 37° C. and 5% CO2. In day 2, 10 μL of growth medium containing 10-fold stock solution of testing compound was added into cell cultures (9 dose points with 3× serial dilution, starting with 30 μM, 0.3% DMSO final). After 72-hr incubation at 37° C. and 5% CO2, in day 5 a volume of 50 μL CellTiter Glo (CTG) reagent was added into cell-containing 96-well plate and the plate was incubated at room temperature for 10 minutes before RLUs (relative light unit) were measured on a microplate reader with luminescence detection module.

[2] = target: T1, human FGFR3 wild type enzyme (cytoplasmic domain) (Homo sapiens, UniProt P22607); experiment: FGFR3 wild type mobility shift assay (enzymatic assay); assay type: biochemical; conditions: 75 μM ATP, 50 minutes at 30° C, Caliper EZ reader II
T1 construct: human FGFR3 wild type enzyme (cytoplasmic domain, from Carna Biosciences); purchased Carna Biosciences
T1 sequence (P22607 397-806 limits assumed): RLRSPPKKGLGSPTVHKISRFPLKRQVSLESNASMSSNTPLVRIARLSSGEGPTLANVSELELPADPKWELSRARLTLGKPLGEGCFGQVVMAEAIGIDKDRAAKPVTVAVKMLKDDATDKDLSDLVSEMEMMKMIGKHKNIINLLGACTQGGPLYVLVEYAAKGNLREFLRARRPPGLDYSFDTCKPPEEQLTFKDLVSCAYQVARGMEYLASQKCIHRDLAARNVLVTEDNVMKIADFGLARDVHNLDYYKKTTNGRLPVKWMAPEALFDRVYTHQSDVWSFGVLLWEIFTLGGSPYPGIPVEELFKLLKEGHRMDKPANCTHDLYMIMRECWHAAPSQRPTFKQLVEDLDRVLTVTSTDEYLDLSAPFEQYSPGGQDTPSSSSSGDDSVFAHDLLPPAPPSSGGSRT
Excerpt: FGFR3 Wild Type Mobility Shift Assay (Enzymatic Assay)

[3] = target: T2, NIH/3T3 cells overexpressing FGFR3 WT-TACC3 fusion protein (Homo sapiens, UniProt P22607); experiment: NIH/3T3 FGFR3 WT-TACC3 cell proliferation assay (CellTiter Glo); assay type: cell-based; conditions: 72-hr incubation, top concentration 10 μM, read-out: NIH/3T3 FGFR3 WT-TACC3 CTG (IC50)
T2 construct: NIH/3T3 FGFR3 WT-TACC3 CTG (IC50); other: 72-hr incubation, CellTiter Glo, top concentration 10 μM; fused on or other part: Q9Y6A5 (Transforming acidic coiled-coil-containing protein 3)
T2 sequence (P22607 whole entry, change not shown, the tested form may be a part): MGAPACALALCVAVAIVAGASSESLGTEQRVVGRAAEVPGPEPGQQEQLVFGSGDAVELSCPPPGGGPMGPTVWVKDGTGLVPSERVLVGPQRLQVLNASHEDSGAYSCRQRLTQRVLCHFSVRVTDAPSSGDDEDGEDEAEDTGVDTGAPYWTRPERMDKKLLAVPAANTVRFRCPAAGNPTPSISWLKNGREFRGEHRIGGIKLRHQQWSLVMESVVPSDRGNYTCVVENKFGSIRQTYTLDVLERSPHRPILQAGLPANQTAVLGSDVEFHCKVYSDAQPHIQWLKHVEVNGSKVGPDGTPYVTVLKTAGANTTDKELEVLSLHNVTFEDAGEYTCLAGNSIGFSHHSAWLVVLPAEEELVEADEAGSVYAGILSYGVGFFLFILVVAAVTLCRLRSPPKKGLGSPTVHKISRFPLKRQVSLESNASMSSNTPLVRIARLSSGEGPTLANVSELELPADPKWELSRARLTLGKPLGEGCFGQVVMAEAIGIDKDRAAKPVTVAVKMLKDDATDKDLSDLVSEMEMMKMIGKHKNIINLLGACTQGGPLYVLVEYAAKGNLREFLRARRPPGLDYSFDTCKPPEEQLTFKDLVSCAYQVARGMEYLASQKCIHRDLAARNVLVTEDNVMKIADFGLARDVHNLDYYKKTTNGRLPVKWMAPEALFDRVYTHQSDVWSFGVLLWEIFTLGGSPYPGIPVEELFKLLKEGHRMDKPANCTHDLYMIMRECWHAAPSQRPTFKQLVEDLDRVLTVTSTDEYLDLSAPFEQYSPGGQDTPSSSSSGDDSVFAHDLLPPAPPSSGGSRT
Procedure: NIH/3T3 FGFR3 WT-TACC3 Cell Proliferation Assay
In day 1, 90 μL of cell suspension (NIH/3T3 cells overexpressing FGFR3 WT-TACC3 fusion protein) (total 30,000 cells per well in growth medium (DMEM containing 1% Glutamax, 10% FBS and 1% Pen/Strep)) was seeded in a 96-well plate and then incubated overnight at 37° C. and 5% CO2. […] After 72-hr incubation at 37° C. and 5% CO2, in day 5 a volume of 50 μL CellTiter Glo (CTG) reagent was added into cell-containing 96-well plate and the plate was incubated at room temperature for 10 minutes before RLUs (relative light unit) were measured on a microplate reader with luminescence detection module.

| Structure (SMILES) | IC50 [2] [nM] | GI50 [3] [nM] | IC50 [1] [nM] |
| --- | --- | --- | --- |
| CCn1cc2[nH]c(=O)c(-c3nc4ccc(N5CCOCC5)cc4[nH]3)c(NC(C)c3cocn3)c2n1 (single isomer, unassigned) [Compound 4A, (S*)-2-ethyl-6-(6-morpholino-1H-benzo[d]imidazol-2-yl)-7-((1-(oxazol-4-yl)ethyl)amino)-2H-pyrazolo[4,3-b]pyridin-5(4H)-one] | 3.77 | 26.1 | 288 |
| CC(Nc1c(-c2nc3cc(F)c(N4CCOCC4)cc3[nH]2)c(=O)[nH]c2cn(C)nc12)c1ncccn1 (single isomer, unassigned) [Compound 9, (S*)-6-(5-Fluoro-6-morpholino-1H-benzo[d]imidazol-2-yl)-2-methyl-7-((1-(pyrimidin-2-yl)ethyl)amino)-2H-pyrazolo[4,3-b]pyridin-5(4H)-one] | 0.618 | 17.1 | 691 |
| CC(Nc1c(-c2nc3ccc(N4CCOCC4)c(F)c3[nH]2)c(=O)[nH]c2cn(C)nc12)c1ncccn1 (single isomer, unassigned) [Compound 14, (S*)-6-(7-fluoro-6-morpholino-1H-benzo[d]imidazol-2-yl)-2-methyl-7-((1-(pyrimidin-2-yl)ethyl)amino)-2H-pyrazolo[4,3-b]pyridin-5(4H)-one] | 1.9 | 4.06 | 424 |
| CC(Nc1c(-c2nc3ccc(N4CCCCC4)c(F)c3[nH]2)c(=O)[nH]c2cn(C)nc12)c1ncccn1 (single isomer, unassigned) [Compound 15, (S*)-6-(7-fluoro-6-(piperidin-1-yl)-1H-benzo[d]imidazol-2-yl)-2-methyl-7-((1-(pyrimidin-2-yl)ethyl)amino)-2H-pyrazolo[4,3-b]pyridin-5(4H)-one] | 1.06 | 16.9 | 3700 |
| CC(C)C(Nc1c(-c2nc3cnc(N4CCN(C)CC4)cc3[nH]2)c(=O)[nH]c2cn(C)nc12)c1ncccn1 (single isomer, unassigned) [Compound 23, (S*)-2-methyl-7-((2-methyl-1-(pyrimidin-2-yl)propyl)amino)-6-(6-(4-methylpiperazin-1-yl)-1H-imidazo[4,5-c]pyridin-2-yl)-2H-pyrazolo[4,3-b]pyridin-5(4H)-one] | 0.979 | 34.6 | 266 |
| Cc1c(N2CCOCC2)ccc2nc(-c3c(NC(C)c4ncccn4)c4nn(C)cc4[nH]c3=O)[nH]c12 (single isomer, unassigned) [Compound 28, (S*)-2-methyl-6-(7-methyl-6-morpholino-1H-benzo[d]imidazol-2-yl)-7-((1-(pyrimidin-2-yl)ethyl)amino)-2H-pyrazolo[4,3-b]pyridin-5(4H)-one] | 0.939 | 10 | 2070 |
| COCC(Nc1c(-c2nc3c(F)cc(N4CCOCC4)cc3[nH]2)c(=O)[nH]c2cn(C)nc12)c1ncccn1 (single isomer, unassigned) [Compound 29, (S*)-6-(4-fluoro-6-morpholino-1H-benzo[d]imidazol-2-yl)-7-((2-methoxy-1-(pyrimidin-2-yl)ethyl)amino)-2-methyl-2H-pyrazolo[4,3-b]pyridin-5(4H)-one] | 8.56 | 98.3 | 1530 |
| CC(Nc1c(-c2nc3ccc(OC4CCOCC4)cc3[nH]2)c(=O)[nH]c2cn(C)nc12)c1cocn1 (single isomer, unassigned) [Compound 36, (S*)-2-methyl-7-((1-(oxazol-4-yl)ethyl)amino)-6-(6-((tetrahydro-2H-pyran-4-yl)oxy)-1H-benzo[d]imidazol-2-yl)-2H-pyrazolo[4,3-b]pyridin-5(4H)-one] | 0.839 | 49.6 | 753 |

More lines, main results first:

| IC50 [2] [nM] | GI50 [3] [nM] | Structure (SMILES) | IC50 [1] [nM] |
| --- | --- | --- | --- |
| 8.17 | 21.5 | CC(Nc1c(-c2nc3cc(C(F)(F)F)c(N4CCOCC4)cc3[nH]2)c(=O)[nH]c2cn(C)nc12)c1ncccn1 (racemic) [Compound 19, (Rac)-2-Methyl-6-(6-morpholino-5-(trifluoromethyl)-1H-benzo[d]imidazol-2-yl)-7-((1-(pyrimidin-2-yl)ethyl)amino)-2H-pyrazolo[4,3-b]pyridin-5(4H)-one] | 3990 |
| 0.399 | 10.5 | C[C@H](Nc1c(-c2nc3ccc(N4CCO[C@@H](C(F)(F)F)C4)cc3[nH]2)c(=O)[nH]c2cn(C)nc12)c1ncccn1 (relative stereo) [Compound 7, 2-Methyl-7-(((S*)-1-(pyrimidin-2-yl)ethyl)amino)-6-(6-((R*)-2-(trifluoromethyl)-morpholino)-1H-benzo[d]imidazol-2-yl)-2H-pyrazolo[4,3-b]pyridin-5(4H)-one] | 1080 |
| 0.542 | 6.78 | C[C@H](Nc1c(-c2nc3ccc(N4CCO[C@H](C(F)(F)F)C4)cc3[nH]2)c(=O)[nH]c2cn(C)nc12)c1ncccn1 (relative stereo) [Compound 8, 2-Methyl-7-(((S*)-1-(pyrimidin-2-yl)ethyl)amino)-6-(6-((S*)-2-(trifluoromethyl)-morpholino)-1H-benzo[d]imidazol-2-yl)-2H-pyrazolo[4,3-b]pyridin-5(4H)-one] | 444 |
| 3.71 | 17.5 | CC(Nc1c(-c2nc3cc(C(F)(F)F)c(N4CCOCC4)cc3[nH]2)c(=O)[nH]c2cn(C)nc12)c1ncccn1 (single isomer, unassigned) [Compound 21, (R*)-2-methyl-6-(6-morpholino-5-(trifluoromethyl)-1H-benzo[d]imidazol-2-yl)-7-((1-(pyrimidin-2-yl)ethyl)amino)-2H-pyrazolo[4,3-b]pyridin-5(4H)-one] | 5900 |
| 0.377 | 18.1 | CC(Nc1c(-c2nc3ccc(C4CCOCC4)cc3[nH]2)c(=O)[nH]c2cn(C)nc12)c1ncccn1 (single isomer, unassigned) [Compound 22, (S*)-2-methyl-7-((1-(pyrimidin-2-yl)ethyl)amino)-6-(6-(tetrahydro-2H-pyran-4-yl)-1H-benzo[d]imidazol-2-yl)-2H-pyrazolo[4,3-b]pyridin-5(4H)-one] | 1080 |
| 0.637 | 5.96 | CC(Nc1c(-c2nc3ccc(N4CCN(CC(F)(F)F)CC4)cc3[nH]2)c(=O)[nH]c2cn(C)nc12)c1ncccn1 (single isomer, unassigned) [Compound 26, (S*)-2-methyl-7-((1-(pyrimidin-2-yl)ethyl)amino)-6-(6-(4-(2,2,2-trifluoroethyl)piperazin-1-yl)-1H-benzo[d]imidazol-2-yl)-2H-pyrazolo[4,3-b]pyridin-5(4H)-one] | 768 |
| 4.29 | 195 | C[C@@H](Nc1c(-c2nc3ccc(N4CCN(C)CC4)cc3[nH]2)c(=O)[nH]c2cn(C)nc12)c1ncccc1C(F)(F)F (single isomer, unassigned) [Compound 32, (R*)-2-methyl-6-(6-(4-methylpiperazin-1-yl)-1H-benzo[d]imidazol-2-yl)-7-((1-(3-(trifluoromethyl)pyridin-2-yl)ethyl)amino)-2H-pyrazolo[4,3-b]pyridin-5(4H)-one 0.2 formate] | 4230 |
| 1.22 | 23.3 | CC(Nc1c(-c2nc3ccc(N4CCCCC4)cc3[nH]2)c(=O)[nH]c2cn(C)nc12)c1ncccn1 (single isomer, unassigned) [Compound 34, (S*)-2-methyl-6-(6-(piperidin-1-yl)-1H-benzo[d]imidazol-2-yl)-7-((1-(pyrimidin-2-yl)-ethyl)amino)-2H-pyrazolo[4,3-b]pyridin-5(4H)-one] | 734 |
